For this assay, the target named is MAPKAPK2 (Homo sapiens, UniProt P49137). The assay can be described thus: HTS ATP-utilizing enzyme assay, off-chip mobility-shift (Caliper HTS 250). The assay is classed as biochemical. The following applies: test compound 10 μM, kinase listed = active (greater than six-sigma from the mean activity of inactive compounds). From the text:
The following procedures describe the reagent and plate preparation for a HTS of an ATP-utilizing enzyme, such as a protein kinase, run in an off-chip mobility-shift assay format. The following provides an HTS protocol for running a protein kinase HTS screen on a Caliper HTS 250 microfluidics system. The following parameters are dependent on the protein kinase used and can be determined by one skilled in the art as part of a typical assay development process. For example, the peptide substrate used can be identified from the current literature, by screening a peptide library of potential protein kinase substrates, or by other applicable means accepted in the field.
The following table provides typical screen assay parameters appropriate for a Caliper HTS 250 microfluidics system.
The reagents and buffers listed in the following table are generally applicable for developing and running an HTS screen on a human protein kinase using the Caliper HTS 250 system.
The following reagents were prepared using the previously described buffers.
A 2× Master Buffer solution was prepared by combining 200 mL of 1 M HEPES, pH 7.5, 2 mL of 10% Triton X-100, 20 mL of 10% BSA, and 778 mL of H2O.
A TCB Buffer solution was prepared by combining 125 mL of 2× Master Buffer, 10 mL of 0.5 M EDTA, 6.25 mL of 4% coating reagent, 1.01 mL of 100% DMSO, and 107.74 mL H2O.
Assays to determine the kinase inhibitory activity of compounds of the present disclosure were performed using a Caliper HTS 250 microfluidics device, Greiner U-bottom assay plates, a Multidrop for transfer of reagents, and Biomek FX (AMNCBM03) software. Initially, 2.4 μL of a 1 mM solution of a test compound in 100% DMSO was added to a well of the Greiner U-bottom plate. A single Greiner U-bottom plate having 24×16 wells could include multiple test compounds. […] Using the Biomek FX, 10 μL of 0.5 M EDTA was added by the span-8 to wells, indicated as 100% Control and 2.4 μL of 100% DMSO was added by the span-8 to wells, indicated as 0% Control. […] The total reaction volume in each well was 25 μL, and the concentration of the test compound was 10 μM. The assay plate was incubated for 2.5 hrs at 20° C. to 22° C. […] The inhibition of the ATP-utilizing enzyme, such as a particular protein kinase, was determined by measuring the ratio of the peptide substrate to phosphorylated product for each well of the assay plate using the Caliper HTS 250 system.
The use of six-sigma statistical limits represents a conservative method for declaring potential hits among targets. The six-sigma activity, as well as the mean population activity, can be different for each target enzyme.

MAPKAPK2, sequence (P49137 whole entry): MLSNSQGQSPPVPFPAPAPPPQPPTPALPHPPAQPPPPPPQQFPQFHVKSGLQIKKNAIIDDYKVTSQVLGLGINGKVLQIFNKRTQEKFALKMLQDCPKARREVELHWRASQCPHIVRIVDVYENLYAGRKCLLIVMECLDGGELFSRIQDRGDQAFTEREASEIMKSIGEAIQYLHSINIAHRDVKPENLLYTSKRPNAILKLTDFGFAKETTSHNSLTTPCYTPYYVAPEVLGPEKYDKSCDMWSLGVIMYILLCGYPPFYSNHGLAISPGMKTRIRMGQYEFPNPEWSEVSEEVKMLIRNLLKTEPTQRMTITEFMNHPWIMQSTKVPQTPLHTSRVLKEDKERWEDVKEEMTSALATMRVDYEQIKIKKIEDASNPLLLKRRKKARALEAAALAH

On to `CN1CCC(N(C)c2ccc(Nc3ccnc4ccc(-c5cnc6ccccc6c5)cc34)cc2)C1` (stereo not drawn) [N1-(3,6′-biquinolin-4′-yl)-N4-methyl-N4-(1-methylpyrrolidin-3-yl)benzene-1,4-diamine], for which the Activity entry is “MAPKAPK2”. The entry for `Cc1ccc(-c2ccc3nccc(Nc4ccc(N(C)C5CCN(C)C5)cc4)c3c2)nc1` (stereo not drawn) [N1-methyl-N4-(6-(5-methylpyridin-2-yl)quinolin-4-yl)-N1-(1-methylpyrrolidin-3-yl)benzene-1,4-diamine] is “MAPKAPK2”; for `CCN(CC)C1CCN(c2ccc(Nc3ccnc4ccc(-c5ccc6ccccc6c5)cc34)cc2)C1` (stereo not drawn) [N-(4-(3-(diethylamino)pyrrolidin-1-yl)phenyl)-6-(naphthalen-2-yl)quinolin-4-amine] it is “MAPKAPK2”; for `CN(C)C1CCN(c2ccc(Nc3ccnc4ccc(-c5cccc6[nH]ccc56)cc34)cc2)C1` (stereo not drawn) [N-(4-(3-(dimethylamino)pyrrolidin-1-yl)phenyl)-6-(1H-indol-4-yl)quinolin-4-amine] it is “MAPKAPK2”. The entry for `CN(C)C1CCN(c2ccc(Nc3ccnc4ccc(-c5ccc6[nH]ccc6c5)cc34)cc2)C1` (stereo not drawn) [N-(4-(3-(dimethylamino)pyrrolidin-1-yl)phenyl)-6-(1H-indol-5-yl)quinolin-4-amine] is “MAPKAPK2”; for `CN(C)C1CCN(c2ccc(Nc3ccnc4ccc(-c5ccc6cc[nH]c6c5)cc34)cc2)C1` (stereo not drawn) [N-(4-(3-(dimethylamino)pyrrolidin-1-yl)phenyl)-6-(1H-indol-6-yl)quinolin-4-amine] it is “MAPKAPK2”; for `Cc1ccc(-c2ccc3nccc(Nc4ccc(N5CCC(N(C)C)C5)cc4)c3c2)cc1C` (stereo not drawn) [N-(4-(3-(dimethylamino)pyrrolidin-1-yl)phenyl)-6-(3,4-dimethylphenyl)quinolin-4-amine] it is “MAPKAPK2”. The entry for `COc1ccc(-c2ccc3nccc(Nc4ccc(N5CCC(N(C)C)C5)cc4)c3c2)cc1F` (stereo not drawn) [N-(4-(3-(dimethylamino)pyrrolidin-1-yl)phenyl)-6-(3-fluoro-4-methoxyphenyl)quinolin-4-amine] is “MAPKAPK2”; for `Cc1ccc(-c2ccc3nccc(Nc4ccc(N5CCC(N(C)C)C5)cc4)c3c2)cc1F` (stereo not drawn) [N-(4-(3-(dimethylamino)pyrrolidin-1-yl)phenyl)-6-(3-fluoro-4-methylphenyl)quinolin-4-amine] it is “MAPKAPK2”; for `COc1cccc(-c2ccc3nccc(Nc4ccc(N5CCC(N(C)C)C5)cc4)c3c2)c1` (stereo not drawn) [N-(4-(3-(dimethylamino)pyrrolidin-1-yl)phenyl)-6-(3-methoxyphenyl)quinolin-4-amine] it is “MAPKAPK2”. Turning to `Cc1cc(-c2ccc3nccc(Nc4ccc(N5CCC(N(C)C)C5)cc4)c3c2)ccc1F` (stereo not drawn) [N-(4-(3-(dimethylamino)pyrrolidin-1-yl)phenyl)-6-(4-fluoro-3-methylphenyl)quinolin-4-amine], the Activity entry is “MAPKAPK2”. Then `CC(C)c1ccc(-c2ccc3nccc(Nc4ccc(N5CCC(N(C)C)C5)cc4)c3c2)cc1` (stereo not drawn) [N-(4-(3-(dimethylamino)pyrrolidin-1-yl)phenyl)-6-(4-isopropylphenyl)quinolin-4-amine], with “MAPKAPK2”. On to `COc1ccc(-c2ccc3nccc(Nc4ccc(N5CCC(N(C)C)C5)cc4)c3c2)cc1` (stereo not drawn) [N-(4-(3-(dimethylamino)pyrrolidin-1-yl)phenyl)-6-(4-methoxyphenyl)quinolin-4-amine], for which the Activity entry is “MAPKAPK2”.

With `C=Cc1ccc(-c2ccc3nccc(Nc4ccc(N5CCC(N(C)C)C5)cc4)c3c2)cc1` (stereo not drawn) [N-(4-(3-(dimethylamino)pyrrolidin-1-yl)phenyl)-6-(4-vinylphenyl)quinolin-4-amine], the Activity result is listed as “MAPKAPK2”.

On to `Cc1ccc(-c2ccc3nccc(Nc4ccc(N5CCC(N(C)C)C5)cc4)c3c2)nc1` (stereo not drawn) [N-(4-(3-(dimethylamino)pyrrolidin-1-yl)phenyl)-6-(5-methylpyridin-2-yl)quinolin-4-amine], for which the Activity result is given as “MAPKAPK2”. As to `CN(C)C1CCN(c2ccc(Nc3ccnc4ccc(-c5ccc6ccccc6c5)cc34)cc2)C1` (stereo not drawn) [N-(4-(3-(dimethylamino)pyrrolidin-1-yl)phenyl)-6-(naphthalen-2-yl)quinolin-4-amine], the Activity entry is given as “MAPKAPK2”. The entry for `CN(C)C1CCN(c2ccc(Nc3ccnc4ccc(-c5nccs5)cc34)cc2)C1` (stereo not drawn) [N-(4-(3-(dimethylamino)pyrrolidin-1-yl)phenyl)-6-(thiazol-2-yl)quinolin-4-amine] is “MAPKAPK2”.

Turning to `Cc1cccc(-c2ccc3nccc(Nc4ccc(N5CCC(N(C)C)C5)cc4)c3c2)c1` (stereo not drawn) [N-(4-(3-(dimethylamino)pyrrolidin-1-yl)phenyl)-6-m-tolylquinolin-4-amine], the Activity entry is on record as “MAPKAPK2”. Regarding `Cc1ccc(-c2ccc3nccc(Nc4ccc(N5CCC(N(C)C)C5)cc4)c3c2)cc1` (stereo not drawn) [N-(4-(3-(dimethylamino)pyrrolidin-1-yl)phenyl)-6-p-tolylquinolin-4-amine], the Activity result is “MAPKAPK2”.

In the case of `CN(C)CCN1CCN(c2ccc(Nc3ccnc4ccc(-c5ccccc5)cc34)cc2)CC1` [N-(4-(4-(2-(dimethylamino)ethyl)piperazin-1-yl)phenyl)-6-phenylquinolin-4-amine], the Activity entry is given as “MAPKAPK2”.

Turning to `COCCN1CCN(c2ccc(Nc3ccnc4ccc(-c5ccccc5)cc34)cc2)CC1` [N-(4-(4-(2-methoxyethyl)piperazin-1-yl)phenyl)-6-phenylquinolin-4-amine], the Activity entry was “MAPKAPK2”.

On to `CCC(CC)N1CCN(c2ccc(Nc3ccnc4ccc(-c5ccccc5)cc34)cc2)CC1` [N-(4-(4-(pentan-3-yl)piperazin-1-yl)phenyl)-6-phenylquinolin-4-amine], for which the Activity entry is listed as “MAPKAPK2”. The entry for `CCCCN1CCN(c2ccc(Nc3ccnc4ccc(-c5ccc(OC)cc5)cc34)cc2)CC1` [N-(4-(4-butylpiperazin-1-yl)phenyl)-6-(4-methoxyphenyl)quinolin-4-amine] is “MAPKAPK2”; for `CCCCN1CCN(c2ccc(Nc3ccnc4ccc(-c5ccccc5)cc34)cc2)CC1` [N-(4-(4-butylpiperazin-1-yl)phenyl)-6-phenylquinolin-4-amine] it is “MAPKAPK2”; for `COc1ccc(-c2ccc3nccc(Nc4ccc(N5CCN(C6CCCCC6)CC5)cc4)c3c2)cc1` [N-(4-(4-cyclohexylpiperazin-1-yl)phenyl)-6-(4-methoxyphenyl)quinolin-4-amine] it is “MAPKAPK2”. In the case of `c1ccc(-c2ccc3nccc(Nc4ccc(N5CCN(C6CCCCC6)CC5)cc4)c3c2)cc1` [N-(4-(4-cyclohexylpiperazin-1-yl)phenyl)-6-phenylquinolin-4-amine], the Activity result was “MAPKAPK2”. Then `COc1ccc(-c2ccc3nccc(Nc4ccc(N5CCN(C6CCCC6)CC5)cc4)c3c2)cc1` [N-(4-(4-cyclopentylpiperazin-1-yl)phenyl)-6-(4-methoxyphenyl)quinolin-4-amine], with “MAPKAPK2”. `c1ccc(-c2ccc3nccc(Nc4ccc(N5CCN(C6CCCC6)CC5)cc4)c3c2)cc1` [N-(4-(4-cyclopentylpiperazin-1-yl)phenyl)-6-phenylquinolin-4-amine]: the Activity result is “MAPKAPK2”. Then `CCN1CCN(c2ccc(Nc3ccnc4ccc(-c5ccc(OC)cc5)cc34)cc2)CC1` [N-(4-(4-ethylpiperazin-1-yl)phenyl)-6-(4-methoxyphenyl)quinolin-4-amine], with “MAPKAPK2”; and `CN1CCN(c2ccc(Nc3ccnc4ccc(-c5cncnc5)cc34)cc2)CC1` [N-(4-(4-methylpiperazin-1-yl)phenyl)-6-(pyrimidin-5-yl)quinolin-4-amine], with “MAPKAPK2”. Regarding `CCCN(c1ccc(N2CCN(C)CC2)cc1)c1ccnc2ccc(-c3ccccc3)cc12` [N-(4-(4-methylpiperazin-1-yl)phenyl)-6-phenyl-N-propylquinolin-4-amine], the Activity result is listed as “MAPKAPK2”. Then `CCC(C)N1CCN(c2ccc(Nc3ccnc4ccc(-c5ccc(OC)cc5)cc34)cc2)CC1` (stereo not drawn) [N-(4-(4-sec-butylpiperazin-1-yl)phenyl)-6-(4-methoxyphenyl)quinolin-4-amine], with “MAPKAPK2”; and `CCC(C)N1CCN(c2ccc(Nc3ccnc4ccc(-c5ccccc5)cc34)cc2)CC1` (stereo not drawn) [N-(4-(4-sec-butylpiperazin-1-yl)phenyl)-6-phenylquinolin-4-amine], with “MAPKAPK2”.

Source of the values: patent publication US7452887B2, “Quinoline- and isoquinoline-based compounds exhibiting ATP-utilizing enzyme inhibitory activity, and compositions, and uses thereof” (Amphora Discovery Corporation, priority 2004, dated 2008).
